Laboratory results as given in the NIST ThermoML archive (doi:10.1021/je900478c).

Experiments:
[1] = 101 kPa, Liquid; for viscosity: Capillary tube (Ostwald / Ubbelohde) method
[2] = refractive index (Na D-line) (dimensionless); conditions: 101.33 kPa, Liquid, Standard Abbe refractometry
[3] = xn = mol fraction of the nth substance listed; conditions: 101 kPa, Liquid, x2 = 0; for viscosity: Capillary tube (Ostwald / Ubbelohde) method
[4] = refractive index (Na D-line) (dimensionless); xn = mol fraction of the nth substance listed; conditions: 101 kPa, Liquid, Standard Abbe refractometry, x2 = 0

CCCCCCOCCOCCO [2-(2-hexyloxyethoxy)ethanol]
[1]
Conditions	mass density [kg/m3]
283.15 K	942.09
288.15 K	938.05
293.15 K	934.06
303.15 K	926.08
313.15 K	918.17

CCCCOCCO [2-butoxyethan-1-ol]
Conditions	mass density, [1] [kg/m3]	refractive index, [2]	viscosity, [1] [mPa·s]
283.15 K	909.49	1.4226	4.46
293.15 K	901.18	1.4196	3.288
303.15 K	892.68	1.4157	2.499
313.15 K	884.21	1.41139	1.946
323.15 K	875.6	1.40701	1.543

CCCCOCCOCCO [3,6-dioxa-1-decanol]
Conditions	refractive index, 283.15 K	refractive index, 293.15 K	refractive index, 303.15 K	refractive index, 313.15 K	refractive index, 323.15 K	viscosity, 283.15 K [mPa·s]	viscosity, 293.15 K [mPa·s]	viscosity, 303.15 K [mPa·s]	viscosity, 313.15 K [mPa·s]	viscosity, 323.15 K [mPa·s]
[1]	–	–	–	–	–	8.301	5.86	4.323	3.295	2.58
[2]	1.4347	1.4312	1.42805	1.424	1.4194	–	–	–	–	–

[1], Vibrating tube method
Conditions	mass density [kg/m3]
283.15 K	962.57
293.15 K	954.16
303.15 K	945.74
313.15 K	937.35
323.15 K	928.85

O [water] + CCCCCCOCCOCCO
Conditions	mass density [kg/m3]
[3], 283.15 K	999.7

O [water] + CCCCOCCO
Conditions	mass density, [3] [kg/m3]	refractive index, [4]	viscosity, [3] [mPa·s]
283.15 K	999.7	1.33369	1.309
293.15 K	–	1.33299	1.003
303.15 K	–	1.33194	0.7983
313.15 K	–	1.33061	0.6543
323.15 K	988.04	1.32904	0.5492

O [water] + CCCCOCCOCCO
Conditions	refractive index, 283.15 K	refractive index, 293.15 K	refractive index, 303.15 K	refractive index, 313.15 K	refractive index, 323.15 K	viscosity, 283.15 K [mPa·s]	viscosity, 293.15 K [mPa·s]	viscosity, 303.15 K [mPa·s]	viscosity, 313.15 K [mPa·s]	viscosity, 323.15 K [mPa·s]
[3]	–	–	–	–	–	1.309	1.003	0.7983	0.6543	0.5492
[4]	1.33369	1.33299	1.33194	1.33061	1.32904	–	–	–	–	–

[3], Vibrating tube method
Conditions	mass density [kg/m3]
283.15 K	999.7
323.15 K	988.04
